Values of other authors, collected in patent US20240057588A1, “HERBICIDAL FORMULATION IN THE FORM OF MICROEMULSION” (RED SURCOS COLOMBIA LTDA, priority 2018, published 2024).

How the values were obtained:
[1] = qualitative

Row | SMILES | Solubility in water | Solubility in organic solvents / other media [1]
1 | CN1CCCC1=O [N-Methylpyrrolidone] | miscible | Miscible
2 | O=C1CCCCC1 [Cyclohexanone] | slightly soluble | soluble in most organic solvents
3 | O=C(O)CNCP(=O)(O)O [glyphosate, reference compound] | very low | 
